From patent US8658638B2, “Mineralocorticoid receptor antagonist and methods of use” (priority 2009, dated 2014) come the findings set out here.

The assay has as its target T1, human MR (Homo sapiens, UniProt P08235).
T1 construct: expressed in transfected cells; host or cells: HEK293
T1 sequence (P08235 1-984): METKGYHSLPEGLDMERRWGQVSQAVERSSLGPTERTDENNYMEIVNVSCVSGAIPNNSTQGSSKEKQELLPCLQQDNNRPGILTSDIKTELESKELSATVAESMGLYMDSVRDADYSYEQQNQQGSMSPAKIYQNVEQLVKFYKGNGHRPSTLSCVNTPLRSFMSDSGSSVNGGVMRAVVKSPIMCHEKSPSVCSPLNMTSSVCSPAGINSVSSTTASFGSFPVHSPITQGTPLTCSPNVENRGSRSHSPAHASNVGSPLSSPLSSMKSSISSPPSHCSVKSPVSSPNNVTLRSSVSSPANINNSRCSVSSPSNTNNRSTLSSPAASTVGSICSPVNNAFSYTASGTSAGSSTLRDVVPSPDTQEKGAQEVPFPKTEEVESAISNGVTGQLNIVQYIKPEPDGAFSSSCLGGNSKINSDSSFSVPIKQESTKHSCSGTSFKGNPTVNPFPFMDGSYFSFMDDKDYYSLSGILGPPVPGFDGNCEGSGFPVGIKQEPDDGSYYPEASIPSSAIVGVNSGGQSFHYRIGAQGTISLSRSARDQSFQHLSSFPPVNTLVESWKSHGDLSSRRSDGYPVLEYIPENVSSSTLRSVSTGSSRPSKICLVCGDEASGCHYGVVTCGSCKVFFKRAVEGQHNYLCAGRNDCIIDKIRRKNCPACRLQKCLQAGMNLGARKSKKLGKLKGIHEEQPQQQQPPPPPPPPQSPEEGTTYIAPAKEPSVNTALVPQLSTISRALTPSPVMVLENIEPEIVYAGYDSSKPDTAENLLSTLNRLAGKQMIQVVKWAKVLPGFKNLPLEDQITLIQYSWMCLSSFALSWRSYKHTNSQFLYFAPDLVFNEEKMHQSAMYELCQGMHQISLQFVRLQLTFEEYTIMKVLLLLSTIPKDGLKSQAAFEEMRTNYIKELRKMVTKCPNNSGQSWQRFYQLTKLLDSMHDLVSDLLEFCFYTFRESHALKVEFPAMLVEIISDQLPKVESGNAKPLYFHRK
Put plainly: hMR competitive antagonist assay (Schild analysis). In kind it is cell-based. The note with it: Schild analysis versus aldosterone, HEK293 transfected with human MR.

Excerpt: Human embryonic kidney HEK293 cells are transfected with human MR using the same transfection reagents, plasmids, promoters, reporter constructs, buffers, and procedures as described above for the Nuclear Hormone Receptor Panel Screen.

What is called Kb is the equilibrium dissociation constant of an antagonist, usually derived from a functional assay. With `O=c1[nH]c2cc(/C=C3\c4ccccc4COc4cc(F)ccc43)ccc2n1[C@@H]1C[C@@H]2COCCN2C1` [Compound (I), 5-((E)-(3-fluorodibenzo[b,e]oxepin-11(6H)-ylidene)methyl)-1-((7R,8aR)-hexahydro-1H-pyrrolo[2,1-c][1,4]oxazin-7-yl)-1H-benzo[d]imidazol-2(3H)-one], the Kb was ~5.1 nM.
